Consider eight compounds from PMC6321014, “Effects of Toona sinensis Leaf Extract and Its Chemical Constituents on Xanthine Oxidase Activity and Serum Uric Acid Levels in Potassium Oxonate-Induced Hyperuricemic Rats” (Molecules, 2018).

Where “and” joins values, the source holds several entries; their conditions need not be identical. Equal values may be shown once. Entries after “also recorded” stand apart in the source; their conditions may differ. Read-outs that look alike come from different tables or passages of the source. A value given as a limit tells only on which side of the number the result lay.

In test [1] the test system is potassium oxonate-induced hyperuricemic rats. Put plainly: Serum uric acid levels in potassium oxonate (PO)-induced hyperuricemic rats. As to conditions: for effect on serum uric acid levels (in words): 40 mg/kg, PO-induced hyperuricemic rats. It is filed as in vivo, rat (male Sprague-Dawley). Here is the method:
Male Sprague–Dawley rats (7 weeks old) were purchased from Orient Bio (Seongmam, Korea) and were housed at a temperature of 22 ± 1 °C with 50 ± 10% humidity under a 12 h light/dark cycle with free access to a laboratory diet and water. The experimental design was approved by the Committee on Animal Care of the Korea Institute of Oriental Medicine, and all experiments were performed in accordance with committee guidelines. The uricase inhibitor PO was administered to induce hyperuricemia. The rats were divided into the following five groups (n = 6/group): (1) Normal control group; […] (3) PO + 300 mg/kg TSE group; […] Blood samples were collected via cardiac puncture under anesthesia 2 h after oral treatment. Serum was obtained by centrifugation of blood at 3000× g for 10 min at 4 °C. The separated serum was stored at −80 °C until analysis. Serum uric acid levels were determined by an enzymatic-colorimetric method using a commercial assay kit (Biovision, Milpitas, CA, USA) according to the manufacturer’s protocol.

Test [2] has as its target T1, xanthine oxidase (XO) enzyme (bovine milk) (Bos taurus, UniProt P80457).
T1 construct: 20 µL of 0.2 unit XO enzyme (bovine milk) in buffer; from tissue; host or cells: bovine milk
Put plainly: In vitro xanthine oxidase (XO) assay, uric acid formation at 295 nm with xanthine as substrate. It is filed as biochemical. As to conditions: for Xanthine Oxidase Kinetic Mode: Lineweaver-Burk and Dixon plots; for inhibition at 100 µM: read-out: Xanthine Oxidase Inhibition %; for IC50: repeated three times.
Protocol: We subsequently analyzed the type of inhibition using both Lineweaver–Burk (Figure 2C) and Dixon (Figure 2D) plots.
XO activity was assayed spectrophotometrically on a Spectra Max M2 microplate reader, using published experimental procedures, with slight modifications. First, 135 µL of 100 mM sodium pyrophosphate buffer (HCl, pH 7.5), 20 µL of 0.2 unit XO enzyme (bovine milk) in buffer, and 5 µL of sample (test extract or compound) in DMSO were mixed at 37 °C. The reaction was started by adding 40 µL of substrate (0.5 mM xanthine) in buffer to the mixture. The reaction mixture (200 µL) was incubated at 37 °C in a 300 µL well plate, and the UV absorbance was determined at 295 nm.

Test [3] has as its target T1, xanthine oxidase (XO) enzyme (bovine milk). As to conditions: cited from earlier work; for XO inhibitory effect (in words): literature statement, ref 23 (Cos et al.).
The mark [4] stands for this setting: isolated compounds and controls, read-out: Xanthine Oxidase IC50.
[5] abbreviates: sample concentration 100 µM for each compound.

T1 sequence (P80457 whole entry): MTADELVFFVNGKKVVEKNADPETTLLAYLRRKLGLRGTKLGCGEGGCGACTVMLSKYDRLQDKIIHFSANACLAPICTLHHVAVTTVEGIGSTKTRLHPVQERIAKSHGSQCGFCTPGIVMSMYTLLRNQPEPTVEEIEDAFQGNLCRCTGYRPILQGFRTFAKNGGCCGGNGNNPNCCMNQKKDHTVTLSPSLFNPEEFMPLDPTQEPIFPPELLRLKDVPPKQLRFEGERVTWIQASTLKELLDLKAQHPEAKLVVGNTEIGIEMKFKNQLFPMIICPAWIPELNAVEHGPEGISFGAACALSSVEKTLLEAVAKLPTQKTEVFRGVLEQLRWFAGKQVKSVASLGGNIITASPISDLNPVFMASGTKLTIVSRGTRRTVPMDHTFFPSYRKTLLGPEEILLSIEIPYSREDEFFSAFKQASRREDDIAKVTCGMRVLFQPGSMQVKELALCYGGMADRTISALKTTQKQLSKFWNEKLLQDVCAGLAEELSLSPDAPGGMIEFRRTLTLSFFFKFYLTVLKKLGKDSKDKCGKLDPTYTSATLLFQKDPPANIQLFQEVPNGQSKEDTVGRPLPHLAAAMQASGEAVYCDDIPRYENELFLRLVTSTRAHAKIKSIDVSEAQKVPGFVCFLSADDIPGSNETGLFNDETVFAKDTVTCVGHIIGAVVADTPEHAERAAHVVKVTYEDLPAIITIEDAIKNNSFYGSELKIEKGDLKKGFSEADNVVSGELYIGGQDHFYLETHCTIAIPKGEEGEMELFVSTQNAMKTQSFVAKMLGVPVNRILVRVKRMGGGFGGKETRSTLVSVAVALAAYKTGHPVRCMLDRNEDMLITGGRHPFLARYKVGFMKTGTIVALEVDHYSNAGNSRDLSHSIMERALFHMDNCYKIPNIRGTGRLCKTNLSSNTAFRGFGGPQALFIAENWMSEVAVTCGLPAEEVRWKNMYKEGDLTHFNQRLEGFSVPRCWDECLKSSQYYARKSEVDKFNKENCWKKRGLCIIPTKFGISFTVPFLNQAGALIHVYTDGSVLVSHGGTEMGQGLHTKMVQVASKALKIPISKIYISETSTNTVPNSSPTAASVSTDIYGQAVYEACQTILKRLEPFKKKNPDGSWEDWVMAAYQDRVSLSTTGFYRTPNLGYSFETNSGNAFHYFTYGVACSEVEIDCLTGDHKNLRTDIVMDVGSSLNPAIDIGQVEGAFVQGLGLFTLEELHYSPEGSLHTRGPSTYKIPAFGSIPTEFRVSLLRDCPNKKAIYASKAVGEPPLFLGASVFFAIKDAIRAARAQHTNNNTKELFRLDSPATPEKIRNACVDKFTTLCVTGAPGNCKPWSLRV

As usually defined, the inhibition is the drop in the measured response relative to a control, in per cent. For the compound `Oc1ncnc2[nH]ncc12` [Allopurinol, allopurinol, reference compound], the “decrease in serum uric acid level” value in test [1] (10 mg/kg oral gavage, positive control, rats) came out at 43.5%. Also, in test [2], the “Xanthine Oxidase Kinetic Mode” value is on record as “Competitive” and the inhibition at 100 µM is greater than 98%.

The IC50 is the concentration that gives 50% inhibition. For the compound `C[C@@H]1O[C@@H](OC[C@H]2O[C@@H](Oc3c(-c4ccc(O)c(O)c4)oc4cc(O)cc(O)c4c3=O)[C@H](O)[C@@H](O)[C@@H]2O)[C@H](O)[C@H](O)[C@H]1O` [Compound 1, quercetin-3-O-rutinoside], the IC50 in test [2] (setting [4]) is greater than 100 µM. In test [2] (setting [5]), the inhibition at 100 µM worked out at 42.9 ± 1.4%.

Consider `O=c1c(O[C@@H]2O[C@H](CO)[C@@H](O)[C@H](O)[C@H]2O)c(-c2ccc(O)c(O)c2)oc2cc(O)cc(O)c12` [Compound 2, quercetin-3-O-β-D-glucopyranoside], for which the IC50 in test [2] (setting [4]) was greater than 100 µM. The inhibition at 100 µM in test [2] (setting [5]) was 47.8 ± 1.1%.

One may read the Ki as the dissociation constant of the complex between target and ligand, obtained from inhibition or displacement. As to `O=C(OC[C@H]1O[C@@H](OC(=O)c2cc(O)c(O)c(O)c2)[C@H](OC(=O)c2cc(O)c(O)c(O)c2)[C@@H](OC(=O)c2cc(O)c(O)c(O)c2)[C@@H]1OC(=O)c1cc(O)c(O)c(O)c1)c1cc(O)c(O)c(O)c1` [Compound 3, 1,2,3,4,6-penta-O-galloyl-β-D-glucopyranose], the “reduction in serum uric acid levels compared to the PO group” value in test [1] (40 mg/kg oral gavage 1 h after PO, blood 2 h after treatment, rats) was 20.7%. Further, the “effect on serum uric acid levels (in words)” value in test [1] is reported as “significantly decreased serum uric acid levels; also recorded: lowered serum uric acid levels”. In addition, the Ki in test [2] (Dixon plots, substrate 50, 100, 200 µM, read-out: Xanthine Oxidase Ki (inhibition constant)) was 3.1 µM. In addition, the “Xanthine Oxidase Kinetic Mode” value in test [2] was “noncompetitive inhibitor”. Further, in test [2] (compound 0-12.5 μM versus XO 0-0.2 unit/mL), the “reversibility of XO inhibition” value is given as “reversible XO inhibitor”. Also, in test [2] (setting [4]), the IC50 was 2.8 µM and 2.79 µM. Moreover, the inhibition at 100 µM in test [2] (setting [5]) was found to be 96.4 ± 0.7%.

Turning to `CC1OC(Oc2c(-c3ccc(O)c(O)c3)oc3cc(O)cc(O)c3c2=O)C(O)C(O)C1O` [Compound 4, quercetin-3-O-α-L-rhamnopyranoside], the “effect on serum uric acid levels (in words)” value in test [1] is reported as “no effect”. This compound showed an IC50 in test [2] (Xanthine Oxidase IC50, isolated compounds and controls) greater than 100 µM. In addition, in test [2], the inhibition at 100 µM was found to be 38.9 ± 1.9%.

As for `O=c1[nH]c(=O)c2c[nH]nc2[nH]1` [Oxypurinol, oxypurinol, reference compound], in test [3] (XO screening, ref 25 (Tamta et al.)), the “XO inhibitory activity compared to allopurinol (in words)” value is given as “much lower inhibitory activity than allopurinol”. Further, the IC50 in test [2] (setting [4]) came out at 28.4 ± 0.5 µM. Besides, in test [2] (setting [5]), the inhibition at 100 µM was found to be 87.6 ± 0.9%.

`O=c1c(O)c(-c2ccc(O)cc2)oc2cc(O)cc(O)c12` [kaempferol]: the “XO inhibitory effect (in words)” value in test [3] is “strong XO inhibitory effects”.

Turning to `O=c1c(O)c(-c2ccc(O)c(O)c2)oc2cc(O)cc(O)c12` [quercetin], the “XO inhibitory effect (in words)” value in test [3] is listed as “strong XO inhibitory effects”.
